Columns and labels:
Test in all cases: relative viability (nuclei count vs DMSO), 5 days (fraction); higher = more cells survive
Imatinib + Pictilisib = compound: Cc1ccc(NC(=O)c2ccc(CN3CCN(C)CC3)cc2)cc1Nc1nccc(-c2cccnc2)n1 [Imatinib] + CS(=O)(=O)N1CCN(Cc2cc3nc(-c4cccc5[nH]ncc45)nc(N4CCOCC4)c3s2)CC1 [Pictilisib] (partner 1 µM)
In short: (§1)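 The day after seeding in 1536-well plates, lung cancer cell lines were treated by pin tool with a single drug, or with a fixed anchor-drug dose together with five library-drug doses (not always all listed) in √10 steps. After 5 days, a combined fix-and-stain solution (final 0.05% Triton X-100, 1% formaldehyde, 1 ug/ml Hoechst) was added. Nuclei counted on 4× images gave relative viability as treated counts over vehicle counts, reported as the median of duplicate plates.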

Imatinib + Bortezomib = compound: Cc1ccc(NC(=O)c2ccc(CN3CCN(C)CC3)cc2)cc1Nc1nccc(-c2cccnc2)n1 [Imatinib] + CC(C)C[C@H](NC(=O)[C@H](Cc1ccccc1)NC(=O)c1cnccn1)B(O)O [Bortezomib] (partner 0.002 µM)
In short: as §1

Imatinib + Lapatinib = compound: Cc1ccc(NC(=O)c2ccc(CN3CCN(C)CC3)cc2)cc1Nc1nccc(-c2cccnc2)n1 [Imatinib] + CS(=O)(=O)CCNCc1ccc(-c2ccc3ncnc(Nc4ccc(OCc5cccc(F)c5)c(Cl)c4)c3c2)o1 [Lapatinib] (partner 2 µM)
In short: as §1

Imatinib + Pemetrexed = compound: Cc1ccc(NC(=O)c2ccc(CN3CCN(C)CC3)cc2)cc1Nc1nccc(-c2cccnc2)n1 [Imatinib] + Nc1nc2[nH]cc(CCc3ccc(C(=O)N[C@@H](CCC(=O)O)C(=O)O)cc3)c2c(=O)[nH]1 [Pemetrexed] (partner 0.2 µM)
In short: as §1

## NCI-H1993
Imatinib + Pictilisib; first compound 0.06325 µM
  relative viability: 0.861
Imatinib + Pictilisib; first compound 0.2 µM
  relative viability: 0.805
Imatinib + Pictilisib; first compound 0.6325 µM
  relative viability: 0.997
Imatinib + Pictilisib; first compound 2 µM
  relative viability: 0.924
Imatinib + Bortezomib; first compound 0.2 µM
  relative viability: 0.954
Imatinib + Bortezomib; first compound 0.6325 µM
  relative viability: 1.11
Imatinib + Bortezomib; first compound 2 µM
  relative viability: 1.02
Imatinib + Lapatinib; first compound 0.06325 µM
  relative viability: 0.872
Imatinib + Lapatinib; first compound 0.2 µM
  relative viability: 0.774
Imatinib + Lapatinib; first compound 0.6325 µM
  relative viability: 0.809
Imatinib + Lapatinib; first compound 2 µM
  relative viability: 0.698
Imatinib + Pemetrexed; first compound 0.02 µM
  relative viability: 0.581
Imatinib + Pemetrexed; first compound 0.06325 µM
  relative viability: 0.44
Imatinib + Pemetrexed; first compound 0.2 µM
  relative viability: 0.501
Imatinib + Pemetrexed; first compound 0.6325 µM
  relative viability: 0.616
Imatinib + Pemetrexed; first compound 2 µM
  relative viability: 0.582

## NCI-H1651
Imatinib + Pictilisib; first compound 0.02 µM
  relative viability: 0.759
Imatinib + Pictilisib; first compound 0.06325 µM
  relative viability: 0.62
Imatinib + Pictilisib; first compound 0.2 µM
  relative viability: 0.698
Imatinib + Pictilisib; first compound 0.6325 µM
  relative viability: 0.634
Imatinib + Pictilisib; first compound 2 µM
  relative viability: 0.569
Imatinib + Bortezomib; first compound 0.02 µM
  relative viability: 1.03
Imatinib + Bortezomib; first compound 0.06325 µM
  relative viability: 0.83
Imatinib + Bortezomib; first compound 0.2 µM
  relative viability: 0.964
Imatinib + Bortezomib; first compound 0.6325 µM
  relative viability: 0.955
Imatinib + Bortezomib; first compound 2 µM
  relative viability: 0.893
Imatinib + Lapatinib; first compound 0.02 µM
  relative viability: 1.02
Imatinib + Lapatinib; first compound 0.06325 µM
  relative viability: 1.06
Imatinib + Lapatinib; first compound 0.2 µM
  relative viability: 0.994
Imatinib + Lapatinib; first compound 0.6325 µM
  relative viability: 0.692
Imatinib + Lapatinib; first compound 2 µM
  relative viability: 0.87
Imatinib + Pemetrexed; first compound 0.02 µM
  relative viability: 0.617
Imatinib + Pemetrexed; first compound 0.06325 µM
  relative viability: 0.339
Imatinib + Pemetrexed; first compound 0.2 µM
  relative viability: 0.586
Imatinib + Pemetrexed; first compound 0.6325 µM
  relative viability: 0.58
Imatinib + Pemetrexed; first compound 2 µM
  relative viability: 0.555

## BEN
Imatinib + Pictilisib; first compound 0.02 µM
  relative viability: 0.609
Imatinib + Pictilisib; first compound 0.06325 µM
  relative viability: 0.383
Imatinib + Pictilisib; first compound 0.2 µM
  relative viability: 0.619
Imatinib + Pictilisib; first compound 0.6325 µM
  relative viability: 0.491
Imatinib + Pictilisib; first compound 2 µM
  relative viability: 0.673
Imatinib + Bortezomib; first compound 0.02 µM
  relative viability: 0.975
Imatinib + Bortezomib; first compound 0.06325 µM
  relative viability: 0.641
Imatinib + Bortezomib; first compound 0.2 µM
  relative viability: 0.796
Imatinib + Bortezomib; first compound 0.6325 µM
  relative viability: 0.79
Imatinib + Bortezomib; first compound 2 µM
  relative viability: 0.581
Imatinib + Lapatinib; first compound 0.06325 µM
  relative viability: 0.465
Imatinib + Lapatinib; first compound 0.2 µM
  relative viability: 0.725
Imatinib + Lapatinib; first compound 0.6325 µM
  relative viability: 0.697
Imatinib + Lapatinib; first compound 2 µM
  relative viability: 0.54
Imatinib + Pemetrexed; first compound 0.02 µM
  relative viability: 0.832
Imatinib + Pemetrexed; first compound 0.06325 µM
  relative viability: 0.835
Imatinib + Pemetrexed; first compound 0.2 µM
  relative viability: 0.691
Imatinib + Pemetrexed; first compound 0.6325 µM
  relative viability: 0.89
Imatinib + Pemetrexed; first compound 2 µM
  relative viability: 0.879

## NCI-H1975
Imatinib + Pictilisib; first compound 0.02 µM
  relative viability: 0.332
Imatinib + Pictilisib; first compound 0.06325 µM
  relative viability: 0.311
Imatinib + Pictilisib; first compound 0.2 µM
  relative viability: 0.294
Imatinib + Pictilisib; first compound 0.6325 µM
  relative viability: 0.28
Imatinib + Pictilisib; first compound 2 µM
  relative viability: 0.324
Imatinib + Bortezomib; first compound 0.02 µM
  relative viability: 0.484
Imatinib + Bortezomib; first compound 0.06325 µM
  relative viability: 0.437
Imatinib + Bortezomib; first compound 0.2 µM
  relative viability: 0.338
Imatinib + Bortezomib; first compound 0.6325 µM
  relative viability: 0.304
Imatinib + Bortezomib; first compound 2 µM
  relative viability: 0.356
Imatinib + Lapatinib; first compound 0.02 µM
  relative viability: 1.01
Imatinib + Lapatinib; first compound 0.06325 µM
  relative viability: 1.04
Imatinib + Lapatinib; first compound 0.2 µM
  relative viability: 1.03
Imatinib + Lapatinib; first compound 0.6325 µM
  relative viability: 1.03
Imatinib + Pemetrexed; first compound 0.02 µM
  relative viability: 0.308
Imatinib + Pemetrexed; first compound 0.06325 µM
  relative viability: 0.299
Imatinib + Pemetrexed; first compound 0.2 µM
  relative viability: 0.299
Imatinib + Pemetrexed; first compound 0.6325 µM
  relative viability: 0.309
Imatinib + Pemetrexed; first compound 2 µM
  relative viability: 0.284

## LC-2-ad
Imatinib + Pictilisib; first compound 0.02 µM
  relative viability: 0.379
Imatinib + Pictilisib; first compound 0.06325 µM
  relative viability: 0.492
Imatinib + Pictilisib; first compound 0.2 µM
  relative viability: 0.573
Imatinib + Pictilisib; first compound 0.6325 µM
  relative viability: 0.429
Imatinib + Pictilisib; first compound 2 µM
  relative viability: 0.43
Imatinib + Bortezomib; first compound 0.02 µM
  relative viability: 1.16
Imatinib + Bortezomib; first compound 0.06325 µM
  relative viability: 0.658
Imatinib + Bortezomib; first compound 0.2 µM
  relative viability: 1.18
Imatinib + Bortezomib; first compound 0.6325 µM
  relative viability: 0.985
Imatinib + Bortezomib; first compound 2 µM
  relative viability: 0.929
Imatinib + Lapatinib; first compound 0.02 µM
  relative viability: 0.933
Imatinib + Lapatinib; first compound 0.06325 µM
  relative viability: 0.886
Imatinib + Lapatinib; first compound 0.2 µM
  relative viability: 0.884
Imatinib + Lapatinib; first compound 0.6325 µM
  relative viability: 1.02
Imatinib + Lapatinib; first compound 2 µM
  relative viability: 0.935
Imatinib + Pemetrexed; first compound 0.02 µM
  relative viability: 0.265
Imatinib + Pemetrexed; first compound 0.2 µM
  relative viability: 0.298
Imatinib + Pemetrexed; first compound 0.6325 µM
  relative viability: 0.251
Imatinib + Pemetrexed; first compound 2 µM
  relative viability: 0.27

## NCI-H647
Imatinib + Pictilisib; first compound 0.02 µM
  relative viability: 0.462
Imatinib + Pictilisib; first compound 0.06325 µM
  relative viability: 0.447
Imatinib + Pictilisib; first compound 0.2 µM
  relative viability: 0.433
Imatinib + Pictilisib; first compound 0.6325 µM
  relative viability: 0.38
Imatinib + Pictilisib; first compound 2 µM
  relative viability: 0.385
Imatinib + Bortezomib; first compound 0.02 µM
  relative viability: 1.11
Imatinib + Bortezomib; first compound 0.06325 µM
  relative viability: 1.11
Imatinib + Bortezomib; first compound 0.2 µM
  relative viability: 1.73
Imatinib + Bortezomib; first compound 0.6325 µM
  relative viability: 1.02
Imatinib + Bortezomib; first compound 2 µM
  relative viability: 0.872
Imatinib + Lapatinib; first compound 0.06325 µM
  relative viability: 1.11
Imatinib + Lapatinib; first compound 0.2 µM
  relative viability: 1.2
Imatinib + Lapatinib; first compound 0.6325 µM
  relative viability: 1.17
Imatinib + Lapatinib; first compound 2 µM
  relative viability: 1.02
Imatinib + Pemetrexed; first compound 0.02 µM
  relative viability: 0.18
Imatinib + Pemetrexed; first compound 0.06325 µM
  relative viability: 0.183
Imatinib + Pemetrexed; first compound 0.2 µM
  relative viability: 0.192
Imatinib + Pemetrexed; first compound 0.6325 µM
  relative viability: 0.202
Imatinib + Pemetrexed; first compound 2 µM
  relative viability: 0.158

## COR-L23
Imatinib + Pictilisib; first compound 0.02 µM
  relative viability: 1.02
Imatinib + Pictilisib; first compound 0.06325 µM
  relative viability: 0.715
Imatinib + Pictilisib; first compound 0.2 µM
  relative viability: 1.1
Imatinib + Pictilisib; first compound 0.6325 µM
  relative viability: 0.786
Imatinib + Bortezomib; first compound 0.02 µM
  relative viability: 1.38
Imatinib + Bortezomib; first compound 0.06325 µM
  relative viability: 1.03
Imatinib + Bortezomib; first compound 0.2 µM
  relative viability: 1.2
Imatinib + Bortezomib; first compound 0.6325 µM
  relative viability: 1.18
Imatinib + Bortezomib; first compound 2 µM
  relative viability: 0.947
Imatinib + Lapatinib; first compound 0.02 µM
  relative viability: 1.13
Imatinib + Lapatinib; first compound 0.06325 µM
  relative viability: 0.791
Imatinib + Lapatinib; first compound 0.2 µM
  relative viability: 1.41
Imatinib + Lapatinib; first compound 0.6325 µM
  relative viability: 0.922
Imatinib + Lapatinib; first compound 2 µM
  relative viability: 0.829
Imatinib + Pemetrexed; first compound 0.02 µM
  relative viability: 0.196
Imatinib + Pemetrexed; first compound 0.06325 µM
  relative viability: 0.206
Imatinib + Pemetrexed; first compound 0.2 µM
  relative viability: 0.209
Imatinib + Pemetrexed; first compound 0.6325 µM
  relative viability: 0.196
Imatinib + Pemetrexed; first compound 2 µM
  relative viability: 0.159

## NCI-H23
Imatinib + Pictilisib; first compound 0.02 µM
  relative viability: 0.582
Imatinib + Pictilisib; first compound 0.06325 µM
  relative viability: 0.547
Imatinib + Pictilisib; first compound 0.2 µM
  relative viability: 0.541
Imatinib + Pictilisib; first compound 0.6325 µM
  relative viability: 0.446
Imatinib + Pictilisib; first compound 2 µM
  relative viability: 0.494
Imatinib + Bortezomib; first compound 0.02 µM
  relative viability: 1.29
Imatinib + Bortezomib; first compound 0.06325 µM
  relative viability: 0.95
Imatinib + Bortezomib; first compound 0.2 µM
  relative viability: 1.13
Imatinib + Bortezomib; first compound 0.6325 µM
  relative viability: 1.03
Imatinib + Lapatinib; first compound 0.02 µM
  relative viability: 1.2
Imatinib + Lapatinib; first compound 0.06325 µM
  relative viability: 0.959
Imatinib + Lapatinib; first compound 0.2 µM
  relative viability: 1.11
Imatinib + Lapatinib; first compound 2 µM
  relative viability: 1.13
Imatinib + Pemetrexed; first compound 0.02 µM
  relative viability: 0.692
Imatinib + Pemetrexed; first compound 0.06325 µM
  relative viability: 0.69
Imatinib + Pemetrexed; first compound 2 µM
  relative viability: 0.571
